Results on one compound are retold here after patent US20060160871A1, “Stable non-crystalline formulation comprising losartan” (Nektar Therapeutics, priority 2004, published 2006).

Data set [1] in a line: Differential Scanning Calorimetry (DSC): amorphous form and glass transition temperature. Type of data set: physicochemical. To be noted: specific heat as a function of temperature. On the procedure:
DSC was used to determine glass transition temperatures. This technique provides a measure of the glass transition characteristics of amorphous materials. In addition, the absence of a melting point is indicative of the lack of three dimensional order characteristic of crystalline materials. A Perkin-Elmer™ DSC 7 (Perkin-Elmer Ltd, UK) was used. 1-5 mg samples were examined in sealed, crimped aluminium pans, under an atmosphere of nitrogen. Samples were measured using a TA DSC-2920 instrument (TA Instruments, New Castle, Del.). About 5-10 mg sample was packed into an aluminum DSC pan and gently tapped to get the powder to form a uniform layer on the bottom of the pan (Catalog numbers 900 793.901 for pans and 900 794.901 for lids). The DSC pan was hermetically sealed using a sample encapsulation press (part # 900680.902). Helium is used as the DSC purge gas at 30 ml/min. A Refrigerated Control System (RCS) provides the heat sink for the DSC, with helium as the circuit gas run at ˜110 ml/min. In modulated DSC experiments, the sample was first cooled to about 0° C., held isothermally for 10 minutes, and then heated at 2° C./minute to ˜200° C. The heating rate was modulated by superimposing a sinusoidal heating profile at ±0.318° C./min.
For orientation: DSC measures the heat that a sample takes up or gives off during a temperature scan.

Data set [2] is described as follows: Powder flowability after exposure to ambient conditions. The format is physicochemical. The text has this:
The particles made by Example 2 were further determined to be advantageous over pure non-crystalline forms. […] Accordingly, the non-crystalline losartan and PVP-VA containing powder formulation has an improved flowability for downstream process such as tablet formation.

As to `CCCCc1nc(Cl)c(CO)n1Cc1ccc(-c2ccccc2-c2nnn[nH]2)cc1.[K]` [pure non-crystalline losartan, 2-butyl-4-chloro-1-[p-(o-1H-tetrazol-5-ylphenyl)benzyl]imidazole-5-methanol monopotassium salt], in data set [1], the Tg midpoint entry was “about 51 °C” and the Tg onset result was “about 46 °C”. Also, the powder flowability result in data set [2] was “sticks and agglomerates”.
